Measured values taken from patent publication US8575176B2, “Heteroaromatic pyrazinoylguanidine sodium channel blockers” (Parion Sciences, Inc., priority 2008, dated 2013).
Where a name gives a salt, the structure may show the parent alone.

Key:
[1] = target: T1, epithelial sodium channels (ENaC) (Homo sapiens, UniProt P37088+P51168+P51170); test: In vitro sodium channel blocking activity (short circuit current, Ussing chambers), human airway cells; assay type: cell-based; details: freshly excised cell from human airways
T1 construct: endogenous in cells; host or cells: primary human airway epithelial cells cultured at air-liquid interface
T1 sequence (P37088 1-669): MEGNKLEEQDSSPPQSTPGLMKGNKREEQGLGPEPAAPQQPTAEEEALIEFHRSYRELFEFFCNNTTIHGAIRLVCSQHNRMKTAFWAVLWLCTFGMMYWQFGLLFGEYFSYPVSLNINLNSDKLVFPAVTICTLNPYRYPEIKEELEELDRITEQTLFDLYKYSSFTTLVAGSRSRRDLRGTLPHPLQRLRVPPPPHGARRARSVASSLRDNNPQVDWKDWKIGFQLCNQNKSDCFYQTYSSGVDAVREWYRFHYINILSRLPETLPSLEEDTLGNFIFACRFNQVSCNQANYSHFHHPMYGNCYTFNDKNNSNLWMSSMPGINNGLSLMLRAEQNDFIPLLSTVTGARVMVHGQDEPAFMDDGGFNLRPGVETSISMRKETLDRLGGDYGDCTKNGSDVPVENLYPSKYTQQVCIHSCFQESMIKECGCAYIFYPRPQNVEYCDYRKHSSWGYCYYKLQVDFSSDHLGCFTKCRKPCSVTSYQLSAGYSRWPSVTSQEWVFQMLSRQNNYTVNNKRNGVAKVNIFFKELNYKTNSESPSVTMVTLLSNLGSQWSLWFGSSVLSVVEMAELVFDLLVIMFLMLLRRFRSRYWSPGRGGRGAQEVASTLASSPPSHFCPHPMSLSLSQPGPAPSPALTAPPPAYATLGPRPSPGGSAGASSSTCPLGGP
T1 sequence (P51168 1-640): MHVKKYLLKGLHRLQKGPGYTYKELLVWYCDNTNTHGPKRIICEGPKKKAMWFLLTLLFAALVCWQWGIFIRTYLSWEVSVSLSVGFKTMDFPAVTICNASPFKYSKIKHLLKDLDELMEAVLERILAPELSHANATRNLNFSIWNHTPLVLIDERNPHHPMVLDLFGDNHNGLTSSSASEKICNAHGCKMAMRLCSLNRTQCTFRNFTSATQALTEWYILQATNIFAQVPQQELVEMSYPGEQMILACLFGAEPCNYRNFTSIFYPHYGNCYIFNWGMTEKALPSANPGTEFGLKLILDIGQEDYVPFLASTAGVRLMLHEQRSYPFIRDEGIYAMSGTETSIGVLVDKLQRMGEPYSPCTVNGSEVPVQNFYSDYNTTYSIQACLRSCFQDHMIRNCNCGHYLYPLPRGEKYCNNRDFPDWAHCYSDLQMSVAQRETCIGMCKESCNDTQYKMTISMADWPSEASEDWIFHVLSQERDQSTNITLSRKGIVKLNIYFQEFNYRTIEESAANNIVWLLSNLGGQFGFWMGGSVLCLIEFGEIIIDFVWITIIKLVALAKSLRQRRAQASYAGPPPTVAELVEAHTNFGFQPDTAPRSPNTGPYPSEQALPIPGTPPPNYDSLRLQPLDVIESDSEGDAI
T1 sequence (P51170 1-649): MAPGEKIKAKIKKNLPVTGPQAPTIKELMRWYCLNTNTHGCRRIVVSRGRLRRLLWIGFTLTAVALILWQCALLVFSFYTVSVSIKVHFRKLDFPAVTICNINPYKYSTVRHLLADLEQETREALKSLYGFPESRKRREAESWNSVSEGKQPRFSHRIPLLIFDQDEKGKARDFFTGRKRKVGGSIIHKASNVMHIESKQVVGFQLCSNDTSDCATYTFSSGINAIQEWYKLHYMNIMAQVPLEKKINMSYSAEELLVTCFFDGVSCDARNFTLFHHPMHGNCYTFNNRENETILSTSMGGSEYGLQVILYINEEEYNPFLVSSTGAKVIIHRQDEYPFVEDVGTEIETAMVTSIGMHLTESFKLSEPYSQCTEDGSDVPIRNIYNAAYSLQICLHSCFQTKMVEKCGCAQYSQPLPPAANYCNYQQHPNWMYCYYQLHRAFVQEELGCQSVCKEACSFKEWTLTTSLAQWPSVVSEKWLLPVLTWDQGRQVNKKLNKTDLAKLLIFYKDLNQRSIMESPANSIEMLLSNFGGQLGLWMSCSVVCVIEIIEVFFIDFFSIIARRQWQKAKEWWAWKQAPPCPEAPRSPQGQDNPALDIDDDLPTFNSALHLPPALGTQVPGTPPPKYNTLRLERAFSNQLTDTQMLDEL
Protocol: In Vitro Measure of Sodium Channel Blocking Activity and Reversibility
(§1) One assay used to assess mechanism of action and/or potency of the compounds of the present invention involves the determination of lumenal drug inhibition of airway epithelial sodium currents measured under short circuit current (ISC) using airway epithelial monolayers mounted in Ussing chambers. Cells obtained from freshly excised human, dog, sheep or rodent airways are seeded onto porous 0.4 micron Snapwell™ Inserts (CoStar), cultured at air-liquid interface (ALI) conditions in hormonally defined media, and assayed for sodium transport activity (ISC) while bathed in Krebs Bicarbonate Ringer (KBR) in Using chambers. All test drug additions are to the lumenal bath with half-log dose addition protocols (from 1×10^−11 M to 3×10^−5 M), and the cumulative change in ISC (inhibition) recorded. All drugs are prepared in dimethyl sulfoxide as stock solutions at a concentration of 1×10^−2 M and stored at −20° C. […] After the maximal concentration ([…]) is administered, the lumenal bath is exchanged three times with fresh drug-free KBR solution, and the resultant ISC measured after each wash for approximately 5 minutes in duration. Reversibility is defined as the percent return to the baseline value for sodium current after the third wash. All data from the voltage clamps are collected via a computer interface and analyzed off-line.
(§2) Dose-effect relationships for all compounds are considered and analyzed by the Prism 3.0 program.

[2] = target: T2, epithelial sodium channels (ENaC) (Canis lupus familiaris, UniProt A0A8I3MKE6+A0A8I3Q679+Q95165); test: In vitro sodium channel blocking activity (short circuit current, Ussing chambers), dog airway cells; assay type: cell-based; details: freshly excised cell from dog airways
T2 sequence (A0A8I3Q679 1-649): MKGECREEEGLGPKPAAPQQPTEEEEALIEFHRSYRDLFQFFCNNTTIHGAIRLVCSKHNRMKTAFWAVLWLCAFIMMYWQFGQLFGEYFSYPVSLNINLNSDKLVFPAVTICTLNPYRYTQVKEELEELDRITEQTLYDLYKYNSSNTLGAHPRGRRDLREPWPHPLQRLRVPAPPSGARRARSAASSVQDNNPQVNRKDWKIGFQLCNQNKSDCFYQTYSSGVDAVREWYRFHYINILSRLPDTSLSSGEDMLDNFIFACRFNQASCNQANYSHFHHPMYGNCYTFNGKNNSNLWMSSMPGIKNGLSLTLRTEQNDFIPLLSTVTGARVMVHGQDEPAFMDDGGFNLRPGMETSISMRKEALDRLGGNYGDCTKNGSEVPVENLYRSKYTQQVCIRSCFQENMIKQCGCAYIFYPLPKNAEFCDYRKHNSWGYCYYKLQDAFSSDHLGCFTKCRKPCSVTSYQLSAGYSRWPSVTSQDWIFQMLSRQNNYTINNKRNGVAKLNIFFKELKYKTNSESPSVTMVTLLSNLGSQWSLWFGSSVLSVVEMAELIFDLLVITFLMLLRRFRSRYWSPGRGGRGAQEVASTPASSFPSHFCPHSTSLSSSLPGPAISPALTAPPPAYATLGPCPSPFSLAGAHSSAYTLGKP
T2 sequence (Q95165 1-641): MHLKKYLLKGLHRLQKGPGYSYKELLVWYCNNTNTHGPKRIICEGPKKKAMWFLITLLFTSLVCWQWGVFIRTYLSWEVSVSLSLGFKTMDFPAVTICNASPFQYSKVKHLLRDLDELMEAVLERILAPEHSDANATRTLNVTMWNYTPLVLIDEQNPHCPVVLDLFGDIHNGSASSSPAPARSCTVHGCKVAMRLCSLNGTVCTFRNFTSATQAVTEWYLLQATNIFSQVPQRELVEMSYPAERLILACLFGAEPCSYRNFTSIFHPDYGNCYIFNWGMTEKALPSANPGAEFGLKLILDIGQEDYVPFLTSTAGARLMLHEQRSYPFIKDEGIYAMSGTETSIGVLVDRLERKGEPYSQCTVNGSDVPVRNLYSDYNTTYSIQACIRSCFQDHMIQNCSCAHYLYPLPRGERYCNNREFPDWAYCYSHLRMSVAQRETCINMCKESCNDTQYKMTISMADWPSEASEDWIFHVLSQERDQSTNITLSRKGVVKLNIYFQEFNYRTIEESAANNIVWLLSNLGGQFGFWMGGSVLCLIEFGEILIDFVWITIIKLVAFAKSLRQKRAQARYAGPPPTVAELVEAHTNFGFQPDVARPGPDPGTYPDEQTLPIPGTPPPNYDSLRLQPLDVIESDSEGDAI
T2 sequence (A0A8I3MKE6 1-646): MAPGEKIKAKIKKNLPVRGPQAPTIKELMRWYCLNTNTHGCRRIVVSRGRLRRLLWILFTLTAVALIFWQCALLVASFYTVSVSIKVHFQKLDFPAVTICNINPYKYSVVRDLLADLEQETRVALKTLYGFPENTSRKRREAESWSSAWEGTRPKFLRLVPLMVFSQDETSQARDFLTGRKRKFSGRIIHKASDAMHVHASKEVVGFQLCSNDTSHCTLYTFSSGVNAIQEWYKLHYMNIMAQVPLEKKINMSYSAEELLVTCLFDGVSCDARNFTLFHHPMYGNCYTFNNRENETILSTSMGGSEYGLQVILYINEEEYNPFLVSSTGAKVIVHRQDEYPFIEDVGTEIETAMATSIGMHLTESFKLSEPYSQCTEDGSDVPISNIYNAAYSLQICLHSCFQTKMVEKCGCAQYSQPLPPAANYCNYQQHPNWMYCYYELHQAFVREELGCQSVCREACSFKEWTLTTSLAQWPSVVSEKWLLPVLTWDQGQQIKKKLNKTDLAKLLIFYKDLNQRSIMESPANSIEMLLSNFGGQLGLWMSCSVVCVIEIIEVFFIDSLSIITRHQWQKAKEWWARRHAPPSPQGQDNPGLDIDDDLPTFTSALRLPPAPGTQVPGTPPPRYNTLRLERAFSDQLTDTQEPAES
Protocol: as §1, with “Reversibility is defined as the percent return to the baseline value for sodium current after the third wash.” left out
as §2

Potency of Sodium Channel Blockade Relative to Amiloride [1] | melting point | SMILES | IC50 [2]
164 | – | CS(=O)(=O)O.N=C(NCCCCc1ccc(OCCCN)c2ccccc12)NC(=O)c1nc(Cl)c(N)nc1N [Compound 72, 3,5-Diamino-N—(N-{4-[4-(3-aminopropoxy)naphthalen-1-yl]butyl}carbamimidoyl)-6-chloropyrazine-2-carboxamide Methanesulfonic Acid Salt] | –
63 | – | N=C(NCCCCc1ccc2cc(OCC(O)CO)ccc2c1)NC(=O)c1nc(Cl)c(N)nc1N (centres unmarked) [Compound 34, 3,5-Diamino-6-chloro-N—(N-{4-[6-(2,3-dihydropropoxy)naphthalen-2-yl]butyl}carbamimidoyl)pyrazine-2-carboxamide Methanesulfonic Acid Salt] | –
30 | 115 to 118 °C | C[C@H](O)C(=O)O.N=C(NCCCCc1ccc(OCC(O)CO)c2ccccc12)NC(=O)c1cc(Cl)c(N)cc1N [Compound 26, 2,4-Diamino-5-chloro-N—(N-{4-[4-(2,3-dihydroxypropoxy)naphthalen-1-yl]butyl}carbamimidoyl)benzamide L-(+)-Lactic Acid Salt] | –
– | – | CC1OC[C@@H](O)[C@H]([C@H](O)[C@@H](O)CNCCCOc2ccc3cc(CCCCN)ccc3c2)O1 (some centres unmarked) [Compound 105] | 23.5 nM
